Experimental data reported in ChEMBL document CHEMBL1201862, “PubChem BioAssay data set” (2004).
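How tested: cells in 96-well plates exposed to compound for 48 hours at five concentrations. Here, GI50 denotes the concentration required for 50% inhibition of growth.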 The source made the active and inactive calls. Cut-off read from the data, not from the text of the source: active = GI50 up to about 1.1 µM and inactive = higher.

Experiments:
Assay in all cases: growth of human tumour cells (NCI), 48 h
[1] = test system: UACC-257
[2] = test system: MDA-MB-435
[3] = test system: ACHN
[4] = test system: COLO 205
[5] = test system: LOX IMVI
[6] = test system: OVCAR-4
[7] = test system: MOLT-4
[8] = test system: NCI-H23
[9] = test system: SR
[10] = test system: HCT-15
[11] = test system: UACC-62
[12] = test system: Hs-578T
[13] = test system: MCF7
[14] = test system: 786-0
[15] = test system: SK-MEL-2
[16] = test system: OVCAR-8
[17] = test system: SN12C
[18] = test system: SK-OV-3
[19] = test system: HCC 2998
[20] = test system: M14
[21] = test system: NCI/ADR-RES
[22] = test system: U-251
[23] = test system: BT-549
[24] = test system: HT-29
[25] = test system: MDA-MB-231
[26] = test system: UO-31
[27] = test system: K562
[28] = test system: Malme-3M
[29] = test system: T47D
[30] = test system: SK-MEL-5
[31] = test system: A498
[32] = test system: OVCAR-5
[33] = test system: CAKI-1
[34] = test system: KM12
[35] = test system: EKVX
[36] = test system: SK-MEL-28
[37] = test system: HOP-92
[38] = test system: PC-3
[39] = test system: NCI-H522
[40] = test system: TK-10
[41] = test system: HCT-116
[42] = test system: SNB-19
[43] = test system: NCI-H226
[44] = test system: SF-268
[45] = test system: A549
[46] = test system: HOP-62
[47] = test system: SF-295
[48] = test system: MDA-N
[49] = test system: IGROV-1
[50] = test system: RPMI-8226
[51] = test system: OVCAR-3
[52] = test system: HL-60
[53] = test system: RXF 393
[54] = test system: SF-539
[55] = test system: SNB-75
[56] = test system: CCRF-CEM
[57] = test system: DU-145
[58] = test system: SW-620
[59] = test system: NCI-H460

## COc1ccccc1N1C(=O)/C(=C\c2ccccc2)SC1c1cc(OC)c(OC)c(OC)c1 (configuration not stated)
[1]
  GI50: 83.4 µM (inactive)
[2]
  GI50: 17.9 µM (inactive)
[3]
  GI50: 74.1 µM (inactive)
[4]
  GI50: 35.9 µM (inactive)
[5]
  GI50: 21.9 µM (inactive)
[6]
  GI50: 53.5 µM (inactive)
[7]
  GI50: 35 µM (inactive)
[8]
  GI50: 43.9 µM (inactive)
[9]
  GI50: 33.7 µM (inactive)
[10]
  GI50: 32.3 µM
[11]
  GI50: 30.2 µM (inactive)
[12]
  GI50: 33.7 µM (inactive)
[13]
  GI50: 32.3 µM (inactive)
[14]
  GI50: 32.2 µM (inactive)
[15]
  GI50: 7.06 µM (inactive)
[16]
  GI50: 42 µM (inactive)
[17]
  GI50: 17.6 µM (inactive)
[18]
  GI50: 42.3 µM (inactive)
[19]
  GI50: 37.3 µM (inactive)
[20]
  GI50: 35.1 µM (inactive)
[21]
  GI50: 32.1 µM (inactive)
[22]
  GI50: 27.1 µM (inactive)
[23]
  GI50: 34.8 µM (inactive)
[24]
  GI50: 33.3 µM (inactive)
[25]
  GI50: 23.2 µM (inactive)
[26]
  GI50: 45.4 µM (inactive)
[27]
  GI50: 41.7 µM (inactive)
[28]
  GI50: 45.5 µM (inactive)
[29]
  GI50: 5.97 µM (inactive)
[30]
  GI50: 27.6 µM (inactive)
[31]
  GI50: 55.6 µM (inactive)
[32]
  GI50: 62.5 µM (inactive)
[33]
  GI50: 34.2 µM (inactive)
[34]
  GI50: 32.1 µM (inactive)
[35]
  GI50: 37.8 µM (inactive)
[36]
  GI50: 54 µM (inactive)
[37]
  GI50: 34.5 µM (inactive)
[38]
  GI50: 21.4 µM (inactive)
[39]
  GI50: 22.2 µM (inactive)
[40]
  GI50: > 100 µM (inactive)
[41]
  GI50: 31.8 µM (inactive)
[42]
  GI50: 66.8 µM (inactive)
[43]
  GI50: > 100 µM (inactive)
[44]
  GI50: 48.5 µM (inactive)
[45]
  GI50: 40.7 µM (inactive)
[46]
  GI50: 46.7 µM (inactive)
[47]
  GI50: 30.1 µM (inactive)
[48]
  GI50: 17.9 µM (inactive)

## COc1cc(NC(C)=O)ccc1C(=O)NN1C(=O)/C(=C/c2ccco2)N=C1c1ccccc1
[2]
  GI50: 25 µM (inactive)
[3]
  GI50: > 50 µM (inactive)
[4]
  GI50: > 50 µM (inactive)
[5]
  GI50: 34.2 µM (inactive)
[6]
  GI50: 49.5 µM (inactive)
[7]
  GI50: 14.5 µM (inactive)
[8]
  GI50: > 50 µM (inactive)
[49]
  GI50: > 50 µM (inactive)
[9]
  GI50: 22.5 µM (inactive)
[10]
  GI50: > 50 µM
[11]
  GI50: 25.4 µM (inactive)
[12]
  GI50: > 50 µM (inactive)
[50]
  GI50: 13.5 µM (inactive)
[13]
  GI50: 34.3 µM (inactive)
[14]
  GI50: 24.3 µM (inactive)
[15]
  GI50: 14.3 µM (inactive)
[16]
  GI50: > 50 µM (inactive)
[17]
  GI50: > 50 µM (inactive)
[18]
  GI50: > 50 µM (inactive)
[20]
  GI50: 38.2 µM (inactive)
[21]
  GI50: > 50 µM (inactive)
[23]
  GI50: > 50 µM (inactive)
[24]
  GI50: 36.9 µM (inactive)
[26]
  GI50: > 50 µM (inactive)
[27]
  GI50: 20.5 µM (inactive)
[28]
  GI50: > 50 µM (inactive)
[29]
  GI50: > 50 µM (inactive)
[30]
  GI50: 16 µM (inactive)
[31]
  GI50: 15.4 µM (inactive)
[51]
  GI50: > 50 µM (inactive)
[32]
  GI50: > 50 µM (inactive)
[52]
  GI50: 13.6 µM (inactive)
[33]
  GI50: > 50 µM (inactive)
[35]
  GI50: > 50 µM (inactive)
[53]
  GI50: > 50 µM (inactive)
[54]
  GI50: 33.4 µM (inactive)
[36]
  GI50: 28.6 µM (inactive)
[37]
  GI50: > 50 µM (inactive)
[38]
  GI50: > 50 µM (inactive)
[55]
  GI50: > 50 µM (inactive)
[39]
  GI50: 24.5 µM (inactive)
[56]
  GI50: 12.5 µM (inactive)
[41]
  GI50: 30.8 µM (inactive)
[42]
  GI50: > 50 µM (inactive)
[57]
  GI50: > 50 µM (inactive)
[44]
  GI50: > 50 µM (inactive)
[58]
  GI50: 27.7 µM (inactive)
[45]
  GI50: > 50 µM (inactive)
[46]
  GI50: 21.4 µM (inactive)
[47]
  GI50: > 50 µM (inactive)
[48]
  GI50: 14.9 µM (inactive)

## O=C1CS[C@@](CC(c2ccc(Cl)cc2)c2ccc(Cl)cc2)(c2ccc(Cl)cc2)N1
[1]
  GI50: 14.3 µM (inactive)
[2]
  GI50: 14 µM (inactive)
[3]
  GI50: 11.2 µM (inactive)
[4]
  GI50: 4.74 µM (inactive)
[5]
  GI50: 8.53 µM (inactive)
[6]
  GI50: 6.82 µM (inactive)
[7]
  GI50: 3.32 µM (inactive)
[8]
  GI50: 9.75 µM (inactive)
[49]
  GI50: 26.4 µM (inactive)
[9]
  GI50: 4.24 µM (inactive)
[10]
  GI50: 10.8 µM
[11]
  GI50: 12.5 µM (inactive)
[12]
  GI50: 38.2 µM (inactive)
[50]
  GI50: 5.05 µM (inactive)
[13]
  GI50: 4.18 µM (inactive)
[14]
  GI50: 9.66 µM (inactive)
[15]
  GI50: 19.3 µM (inactive)
[16]
  GI50: 14.6 µM (inactive)
[17]
  GI50: 2.16 µM (inactive)
[18]
  GI50: 45 µM (inactive)
[19]
  GI50: 19.5 µM (inactive)
[20]
  GI50: 11.8 µM (inactive)
[21]
  GI50: 8.17 µM (inactive)
[22]
  GI50: 10.2 µM (inactive)
[23]
  GI50: 49.8 µM (inactive)
[24]
  GI50: 9.55 µM (inactive)
[26]
  GI50: 25.1 µM (inactive)
[27]
  GI50: 5.15 µM (inactive)
[28]
  GI50: 21.6 µM (inactive)
[29]
  GI50: 4.28 µM (inactive)
[30]
  GI50: 12.6 µM (inactive)
[31]
  GI50: 11.6 µM (inactive)
[51]
  GI50: 6.21 µM (inactive)
[32]
  GI50: > 100 µM (inactive)
[52]
  GI50: 3.8 µM (inactive)
[33]
  GI50: 19.2 µM (inactive)
[59]
  GI50: 9.1 µM (inactive)
[34]
  GI50: 13.4 µM (inactive)
[35]
  GI50: 16.9 µM (inactive)
[53]
  GI50: 3.56 µM (inactive)
[54]
  GI50: 22.8 µM (inactive)
[36]
  GI50: 43 µM (inactive)
[37]
  GI50: 15.3 µM (inactive)
[38]
  GI50: 4.68 µM (inactive)
[55]
  GI50: 33.5 µM (inactive)
[39]
  GI50: 6.28 µM (inactive)
[56]
  GI50: 4.71 µM (inactive)
[40]
  GI50: 51.3 µM (inactive)
[41]
  GI50: 9.59 µM (inactive)
[42]
  GI50: 33.2 µM (inactive)
[57]
  GI50: 39.1 µM (inactive)
[43]
  GI50: 9.75 µM (inactive)
[44]
  GI50: 17.5 µM (inactive)
[58]
  GI50: 18.2 µM (inactive)
[45]
  GI50: 5.97 µM (inactive)
[46]
  GI50: 14.2 µM (inactive)
[47]
  GI50: 5.08 µM (inactive)
[48]
  GI50: 8.13 µM (inactive)
